# Patent US9686986B2, “Herbicidal compounds” (SYNGENTA LIMITED, priority 2011, dated 2017)
# System: Alopecurus myosuroides (ALOMY)
# Assay: Glasshouse herbicide test, pre- and post-emergence, percentage damage
# Type: in vivo
# Conditions: post-emergence, 1000 g/h, evaluated after 13 days, five point scale
# Description: (§1) Seeds of a variety of test species are sown in standard soil in pots (Alopecurus myosuroides (ALOMY), Setaria faberi (SETFA), Stellaria media (STEME), Echinochloa crus-galli (ECHCG), Solanum nigrum (SOLNI), Amaranthus retoflexus (AMARE), Ipomoea hederacea (IPOHE), Lolium perenne (LOLPE). After cultivation for one day (pre-emergence) or after 8 days cultivation (post-emergence) under controlled conditions in a glasshouse (at 24/16° C., day/night; 14 hours light; 65% humidity), the plants are sprayed with an aqueous spray solution derived from the formulation of the technical active ingredient in acetone/water (50:50) solution containing 0.5% Tween 20 (polyoxyethelyene sorbitan monolaurate, CAS RN 9005-64-5). Compounds ae applied at 1000 g/h. The test plants are then grown in a glasshouse under controlled conditions in a glasshouse (at 24/16° C., day/night; 14 hours light; 65% humidity) and watered twice daily. After 13 days for pre and post-emergence, the test is evaluated for the percentage damage caused to the plant. The biological activities are shown in the following table on a five point scale (5=80-100%; 4=60-79%; 3=40-59%; 2=20-39%; 1=0-19%).
row,Structure (SMILES),"percentage damage caused to the plant, ALOMY, POST Application"
1,Cn1nnnc1NC(=O)c1ccc(S(C)(=O)=O)c(COCC(F)(F)F)c1Cl [Compound 1.001],5 (5=80-100%)
2,Cn1nnnc1NC(=O)c1ccc(C(F)(F)F)cc1S(C)(=O)=O [Compound 1.003],5 (5=80-100%)
3,CCc1nc(C(C)F)ccc1C(=O)Nc1nnnn1C (stereo not drawn) [Compound 1.005],2 (2=20-39%)
4,CCCn1nnnc1NC(=O)c1cc(Cl)ccc1Cl [Compound 1.004],1 (1=0-19%)
5,Cn1nnnc1NC(=O)c1cc(F)c(F)cc1[N+](=O)[O-] [Compound 1.011],1 (1=0-19%)
6,Cc1ccc([N+](=O)[O-])c(C(=O)Nc2nnnn2C)c1 [Compound 1.013],2 (2=20-39%)

# Same assay, conditions: pre-emergence, 1000 g/h, evaluated after 13 days, five point scale
row,Structure (SMILES),"percentage damage caused to the plant, ALOMY, PRE Application"
1,Cn1nnnc1NC(=O)c1ccc(S(C)(=O)=O)c(COCC(F)(F)F)c1Cl [Compound 1.001],5 (5=80-100%)
2,Cn1nnnc1NC(=O)c1ccc(C(F)(F)F)cc1S(C)(=O)=O [Compound 1.003],5 (5=80-100%)
3,CCc1nc(C(C)F)ccc1C(=O)Nc1nnnn1C (stereo not drawn) [Compound 1.005],3 (3=40-59%)
4,CCCn1nnnc1NC(=O)c1cc(Cl)ccc1Cl [Compound 1.004],1 (1=0-19%)
5,Cn1nnnc1NC(=O)c1cc(F)c(F)cc1[N+](=O)[O-] [Compound 1.011],1 (1=0-19%)
6,Cc1ccc([N+](=O)[O-])c(C(=O)Nc2nnnn2C)c1 [Compound 1.013],2 (2=20-39%)

# System: Amaranthus retoflexus (AMARE)
# Assay: as above
# Type: in vivo
# Conditions: post-emergence, 1000 g/h, evaluated after 13 days, five point scale (Table B1)
# Description: as §1
row,Structure (SMILES),"percentage damage caused to the plant, AMARE, POST Application"
1,Cn1nnnc1NC(=O)c1ccc(S(C)(=O)=O)c(COCC(F)(F)F)c1Cl [Compound 1.001],5 (5=80-100%)
2,Cn1nnnc1NC(=O)c1ccc(C(F)(F)F)cc1S(C)(=O)=O [Compound 1.003],5 (5=80-100%)
3,CCc1nc(C(C)F)ccc1C(=O)Nc1nnnn1C (stereo not drawn) [Compound 1.005],5 (5=80-100%)
4,CCCn1nnnc1NC(=O)c1cc(Cl)ccc1Cl [Compound 1.004],4 (4=60-79%)
5,Cn1nnnc1NC(=O)c1cc(F)c(F)cc1[N+](=O)[O-] [Compound 1.011],3 (3=40-59%)
6,Cc1ccc([N+](=O)[O-])c(C(=O)Nc2nnnn2C)c1 [Compound 1.013],4 (4=60-79%)

# Same assay, conditions: pre-emergence, 1000 g/h, evaluated after 13 days, five point scale (Table B1)
row,Structure (SMILES),"percentage damage caused to the plant, AMARE, PRE Application"
1,Cn1nnnc1NC(=O)c1ccc(S(C)(=O)=O)c(COCC(F)(F)F)c1Cl [Compound 1.001],5 (5=80-100%)
2,Cn1nnnc1NC(=O)c1ccc(C(F)(F)F)cc1S(C)(=O)=O [Compound 1.003],5 (5=80-100%)
3,CCc1nc(C(C)F)ccc1C(=O)Nc1nnnn1C (stereo not drawn) [Compound 1.005],5 (5=80-100%)
4,CCCn1nnnc1NC(=O)c1cc(Cl)ccc1Cl [Compound 1.004],5 (5=80-100%)
5,Cn1nnnc1NC(=O)c1cc(F)c(F)cc1[N+](=O)[O-] [Compound 1.011],5 (5=80-100%)
6,Cc1ccc([N+](=O)[O-])c(C(=O)Nc2nnnn2C)c1 [Compound 1.013],5 (5=80-100%)

# System: Echinochloa crus-galli (ECHCG)
# Assay: as above
# Type: in vivo
# Conditions: post-emergence, 1000 g/h, evaluated after 13 days, five point scale
# Description: as §1
row,Structure (SMILES),"percentage damage caused to the plant, ECHCG, POST Application"
1,Cn1nnnc1NC(=O)c1ccc(S(C)(=O)=O)c(COCC(F)(F)F)c1Cl [Compound 1.001],5 (5=80-100%)
2,Cn1nnnc1NC(=O)c1ccc(C(F)(F)F)cc1S(C)(=O)=O [Compound 1.003],5 (5=80-100%)
3,CCc1nc(C(C)F)ccc1C(=O)Nc1nnnn1C (stereo not drawn) [Compound 1.005],5 (5=80-100%)
4,CCCn1nnnc1NC(=O)c1cc(Cl)ccc1Cl [Compound 1.004],1 (1=0-19%)
5,Cn1nnnc1NC(=O)c1cc(F)c(F)cc1[N+](=O)[O-] [Compound 1.011],2 (2=20-39%)
6,Cc1ccc([N+](=O)[O-])c(C(=O)Nc2nnnn2C)c1 [Compound 1.013],1 (1=0-19%)

# Same assay, conditions: pre-emergence, 1000 g/h, evaluated after 13 days, five point scale
row,Structure (SMILES),"percentage damage caused to the plant, ECHCG, PRE Application"
1,Cn1nnnc1NC(=O)c1ccc(S(C)(=O)=O)c(COCC(F)(F)F)c1Cl [Compound 1.001],5 (5=80-100%)
2,Cn1nnnc1NC(=O)c1ccc(C(F)(F)F)cc1S(C)(=O)=O [Compound 1.003],5 (5=80-100%)
3,CCc1nc(C(C)F)ccc1C(=O)Nc1nnnn1C (stereo not drawn) [Compound 1.005],5 (5=80-100%)
4,CCCn1nnnc1NC(=O)c1cc(Cl)ccc1Cl [Compound 1.004],1 (1=0-19%)
5,Cn1nnnc1NC(=O)c1cc(F)c(F)cc1[N+](=O)[O-] [Compound 1.011],1 (1=0-19%)
6,Cc1ccc([N+](=O)[O-])c(C(=O)Nc2nnnn2C)c1 [Compound 1.013],1 (1=0-19%)

# System: Ipomoea hederacea (IPOHE)
# Assay: as above
# Type: in vivo
# Conditions: post-emergence, 1000 g/h, evaluated after 13 days, five point scale
# Description: as §1
row,Structure (SMILES),"percentage damage caused to the plant, IPOHE, POST Application"
1,Cn1nnnc1NC(=O)c1ccc(S(C)(=O)=O)c(COCC(F)(F)F)c1Cl [Compound 1.001],5 (5=80-100%)
2,Cn1nnnc1NC(=O)c1ccc(C(F)(F)F)cc1S(C)(=O)=O [Compound 1.003],5 (5=80-100%)
3,CCc1nc(C(C)F)ccc1C(=O)Nc1nnnn1C (stereo not drawn) [Compound 1.005],5 (5=80-100%)
4,CCCn1nnnc1NC(=O)c1cc(Cl)ccc1Cl [Compound 1.004],5 (5=80-100%)
5,Cn1nnnc1NC(=O)c1cc(F)c(F)cc1[N+](=O)[O-] [Compound 1.011],2 (2=20-39%)
6,Cc1ccc([N+](=O)[O-])c(C(=O)Nc2nnnn2C)c1 [Compound 1.013],5 (5=80-100%)

# Same assay, conditions: pre-emergence, 1000 g/h, evaluated after 13 days, five point scale
row,Structure (SMILES),"percentage damage caused to the plant, IPOHE, PRE Application"
1,Cn1nnnc1NC(=O)c1ccc(S(C)(=O)=O)c(COCC(F)(F)F)c1Cl [Compound 1.001],5 (5=80-100%)
2,Cn1nnnc1NC(=O)c1ccc(C(F)(F)F)cc1S(C)(=O)=O [Compound 1.003],5 (5=80-100%)
3,CCc1nc(C(C)F)ccc1C(=O)Nc1nnnn1C (stereo not drawn) [Compound 1.005],5 (5=80-100%)
4,CCCn1nnnc1NC(=O)c1cc(Cl)ccc1Cl [Compound 1.004],1 (1=0-19%)
5,Cn1nnnc1NC(=O)c1cc(F)c(F)cc1[N+](=O)[O-] [Compound 1.011],1 (1=0-19%)
6,Cc1ccc([N+](=O)[O-])c(C(=O)Nc2nnnn2C)c1 [Compound 1.013],4 (4=60-79%)

# System: Setaria faberi (SETFA)
# Assay: as above
# Type: in vivo
# Conditions: post-emergence, 1000 g/h, evaluated after 13 days, five point scale
# Description: as §1
row,Structure (SMILES),"percentage damage caused to the plant, SETFA, POST Application"
1,Cn1nnnc1NC(=O)c1ccc(S(C)(=O)=O)c(COCC(F)(F)F)c1Cl [Compound 1.001],5 (5=80-100%)
2,Cn1nnnc1NC(=O)c1ccc(C(F)(F)F)cc1S(C)(=O)=O [Compound 1.003],5 (5=80-100%)
3,CCc1nc(C(C)F)ccc1C(=O)Nc1nnnn1C (stereo not drawn) [Compound 1.005],2 (2=20-39%)
4,CCCn1nnnc1NC(=O)c1cc(Cl)ccc1Cl [Compound 1.004],1 (1=0-19%)
5,Cn1nnnc1NC(=O)c1cc(F)c(F)cc1[N+](=O)[O-] [Compound 1.011],1 (1=0-19%)
6,Cc1ccc([N+](=O)[O-])c(C(=O)Nc2nnnn2C)c1 [Compound 1.013],1 (1=0-19%)

# Same assay, conditions: pre-emergence, 1000 g/h, evaluated after 13 days, five point scale
row,Structure (SMILES),"percentage damage caused to the plant, SETFA, PRE Application"
1,Cn1nnnc1NC(=O)c1ccc(S(C)(=O)=O)c(COCC(F)(F)F)c1Cl [Compound 1.001],5 (5=80-100%)
2,Cn1nnnc1NC(=O)c1ccc(C(F)(F)F)cc1S(C)(=O)=O [Compound 1.003],5 (5=80-100%)
3,CCc1nc(C(C)F)ccc1C(=O)Nc1nnnn1C (stereo not drawn) [Compound 1.005],3 (3=40-59%)
4,CCCn1nnnc1NC(=O)c1cc(Cl)ccc1Cl [Compound 1.004],1 (1=0-19%)
5,Cn1nnnc1NC(=O)c1cc(F)c(F)cc1[N+](=O)[O-] [Compound 1.011],1 (1=0-19%)
6,Cc1ccc([N+](=O)[O-])c(C(=O)Nc2nnnn2C)c1 [Compound 1.013],2 (2=20-39%)

# System: Solanum nigrum (SOLNI)
# Assay: as above
# Type: in vivo
# Conditions: post-emergence, 1000 g/h, evaluated after 13 days, five point scale
# Description: as §1
row,Structure (SMILES),"percentage damage caused to the plant, SOLNI, POST Application"
1,Cn1nnnc1NC(=O)c1ccc(S(C)(=O)=O)c(COCC(F)(F)F)c1Cl [Compound 1.001],5 (5=80-100%)
2,Cn1nnnc1NC(=O)c1ccc(C(F)(F)F)cc1S(C)(=O)=O [Compound 1.003],5 (5=80-100%)
3,CCc1nc(C(C)F)ccc1C(=O)Nc1nnnn1C (stereo not drawn) [Compound 1.005],5 (5=80-100%)
4,CCCn1nnnc1NC(=O)c1cc(Cl)ccc1Cl [Compound 1.004],5 (5=80-100%)
5,Cn1nnnc1NC(=O)c1cc(F)c(F)cc1[N+](=O)[O-] [Compound 1.011],2 (2=20-39%)
6,Cc1ccc([N+](=O)[O-])c(C(=O)Nc2nnnn2C)c1 [Compound 1.013],5 (5=80-100%)

# Same assay, conditions: pre-emergence, 1000 g/h, evaluated after 13 days, five point scale
row,Structure (SMILES),"percentage damage caused to the plant, SOLNI, PRE Application"
1,Cn1nnnc1NC(=O)c1ccc(S(C)(=O)=O)c(COCC(F)(F)F)c1Cl [Compound 1.001],5 (5=80-100%)
2,Cn1nnnc1NC(=O)c1ccc(C(F)(F)F)cc1S(C)(=O)=O [Compound 1.003],5 (5=80-100%)
3,CCc1nc(C(C)F)ccc1C(=O)Nc1nnnn1C (stereo not drawn) [Compound 1.005],5 (5=80-100%)
4,CCCn1nnnc1NC(=O)c1cc(Cl)ccc1Cl [Compound 1.004],4 (4=60-79%)
5,Cn1nnnc1NC(=O)c1cc(F)c(F)cc1[N+](=O)[O-] [Compound 1.011],1 (1=0-19%)
6,Cc1ccc([N+](=O)[O-])c(C(=O)Nc2nnnn2C)c1 [Compound 1.013],5 (5=80-100%)
